From patent US7238779B2, “Acyl CoA:cholesterol acyltransferase (ACAT-2)” (The Regents of the University of California, priority 1998, dated 2007)

These compounds were tested on ACAT-2 protein (assay: inhibition of ACAT-2 protein activity). Conditions: general statement, concentration not given.
Type: biochemical

Compound	activity of the ACAT-2 protein is inhibited by the compound
CCCCCCCCCCC(C)(C)C(=O)Nc1c(OC)cc(OC)cc1OC [CI-976]	inhibited
CC(C)c1cc(C(C)C)c(CC(=O)NS(=O)(=O)Oc2c(C(C)C)cccc2C(C)C)c(C(C)C)c1 [CI-1011]	inhibited
CC(C)c1cccc(C(C)C)c1NC(=O)NCC1(c2ccc(N(C)C)cc2)CCCC1.Cl [PD 132301-2]	inhibited
O=C(O)c1cc[c]([Hg][OH])cc1 [PHMB]	inhibited
O=S(=O)(F)Cc1ccccc1 [PMSF]	inhibited
CC(=O)[C@H]1CC[C@H]2[C@@H]3CCC4=CC(=O)CC[C@]4(C)[C@H]3CC[C@]12C [progesterone]	inhibited
